Source: patent US10196374B2 (AstraZeneca AB, priority 2014, dated 2019)

Assays:
[1] = target: T1, human glucocorticoid receptor (GR) (Homo sapiens (Human), UniProt P04150); assay: GRE Agonist Assay (ChagoK1 18:7:2 s4/GRE MMTV-GRE-LacZ reporter cell line); format: cell-based; details: for Emax at 1 µM: ChaGo-K-1, relative to full agonist effect of dexamethasone, read-out: TA agonist Observed max Effect at 1 μM (%); for TA agonist pEC50: transactivation in agonist mode, ChagoK1 GRE-LacZ reporter cells, 24 hours
From the text: GRE Agonist Assay A reporter cell line (ChagoK1 18:7:2 s4/GRE) was established by stable transfection of the human bronchogenic carcinoma cell line, ChaGo K1 (ATCC: HTB 168) with a MMTV-GRE-LacZ reporter construct. The generated cell line allows for identification of compounds showing agonist activity at the human glucocorticoid receptor (GR) via induction of LacZ gene expression. Ligand-activated GR binds to the Glucocorticoid Response Element (GRE) in the promoter of the LacZ gene and transcription is initiated. The resulting beta-galactosidase activity is measured through a colour reaction (change in absorbance). Cryo-preserved ChagoK1 18:7:2 s4/GRE cells were suspended in RPMI medium with 10% FBS, 1% NEAA and 1% sodium pyruvate, and seeded as 50000 cells/200 ul/well in 96-well plates and cultured at 37° C. with 5% CO2 and 95% humidity for 24 hours. 1 μl compound was added at different concentrations to the cells and incubated for another 24 hours. […] The reaction was then terminated by addition of 100 μl stop solution (300 mM glycine, 15 mM EDTA, pH 11.3, adjusted with NaOH). […]) Where A=min Y, B=max Y, C=log EC50 and D=Slope factor

[2] = target: T1, human glucocorticoid receptor (GR); assay: GRE Antagonist Assay (ChagoK1 18:7:2 s4/GRE reporter cells pre-stimulated with dexamethasone); format: cell-based; details: for Emax at 1 µM: ChaGo-K-1, relative to full antagonist effect of Mifepristone (RU486), read-out: TA antagonist Observed max Effect at 1 μM (%); for TA antagonist pIC50: transactivation in antagonist mode, pre-stimulated with dexamethasone 70 nM
From the text: GRE Antagonist Assay A reporter cell line (ChagoK1 18:7:2 s4/GRE) was established by stable transfection of the human bronchogenic carcinoma celline, ChaGo K1 (ATCC: HTB 168) with a MMTV-GRE-LacZ reporter construct. The generated cell line allows for identification of compounds showing antagonist activity at the human glucocorticoid receptor (GR) via reduction of LacZ gene expression. Dexamethasone-activated GR binds to the Glucocorticoid Response Element (GRE) in the promoter of the LacZ gene and transcription is initiated. Antagonistic properties of compounds are assessed as beta-galactosidase intensity reduction from pre-stimulation with dexamethasone through a colour reaction (change in absorbance). Cryo-preserved ChagoK1 18:7:2 s4/GRE cells were suspended in RPMI medium with 10% FBS, 1% NEAA and 1% sodium pyruvate, and seeded as 50000 cells/200 ul/well in 96-well plates and cultured at 37° C. with 5% CO2 and 95% humidity for 24 hr. […] The reaction was then terminated by addition of 100 μl stop solution (300 mM glycine, 15 mM EDTA, pH 11.3, adjusted with NaOH). The plates were measured at 420 nm for absorbance in a SpectraMax reader (Molecular Device). […]) Where A=min Y, B=max Y, C=log IC50 and D=Slope factor

T1 sequence (P04150 whole entry): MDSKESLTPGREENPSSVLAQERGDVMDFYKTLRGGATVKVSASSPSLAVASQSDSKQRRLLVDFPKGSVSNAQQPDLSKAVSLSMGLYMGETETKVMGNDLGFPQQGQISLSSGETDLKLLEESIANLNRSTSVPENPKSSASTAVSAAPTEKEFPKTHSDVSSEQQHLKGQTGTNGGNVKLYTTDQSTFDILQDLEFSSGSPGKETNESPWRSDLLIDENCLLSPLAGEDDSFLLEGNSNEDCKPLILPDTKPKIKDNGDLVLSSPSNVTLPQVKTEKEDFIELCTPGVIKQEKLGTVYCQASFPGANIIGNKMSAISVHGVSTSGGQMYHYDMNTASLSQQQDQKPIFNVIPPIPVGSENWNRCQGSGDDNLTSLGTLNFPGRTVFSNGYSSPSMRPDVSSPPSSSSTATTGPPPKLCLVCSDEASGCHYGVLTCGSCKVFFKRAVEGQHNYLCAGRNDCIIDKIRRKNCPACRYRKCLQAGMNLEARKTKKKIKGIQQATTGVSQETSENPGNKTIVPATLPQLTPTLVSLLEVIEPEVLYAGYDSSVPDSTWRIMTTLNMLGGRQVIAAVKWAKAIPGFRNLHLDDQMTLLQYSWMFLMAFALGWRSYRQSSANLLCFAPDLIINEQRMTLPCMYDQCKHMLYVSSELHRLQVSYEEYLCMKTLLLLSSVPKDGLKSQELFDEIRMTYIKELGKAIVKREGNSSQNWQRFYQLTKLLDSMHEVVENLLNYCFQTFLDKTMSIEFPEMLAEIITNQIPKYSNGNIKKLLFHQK

Row | SMILES | Emax at 1 µM [1] [%] | TA agonist pEC50 [1] | Emax at 1 µM [2] [%] | TA antagonist pIC50 [2]
1 | CC(C)[C@H](NC(=O)C(C)(F)F)[C@H](Oc1ccc2c(cnn2-c2ccc(=O)n(C)c2)c1)c1ccc(Cl)c(F)c1 [Example 20, N-[(1R,2S)-1-(4-chloro-3-fluorophenyl)-3-methyl-1-{[1-(1-methyl-6-oxo-1,6-dihydropyridin-3-yl)-1H-indazol-5-yl]oxy}butan-2-yl]-2,2-difluoropropanamide] | 43 | 8.3 | 66 | 7.3
2 | CC(C)[C@H](NC(=O)C(F)(F)F)[C@H](Oc1ccc2c(cnn2-c2ccc(=O)n(C)c2)c1)c1cc(F)cc(F)c1 [Example 4] | 42 | 8.7 | 51 | 8.8
3 | CC(C)[C@H](NC(=O)C(F)(F)F)[C@H](Oc1cc2cnn(-c3ccc(=O)n(C)c3)c2cc1Cl)c1ccccc1 [Example 22, N-[(1R,2S)-1-{[6-chloro-1-(1-methyl-6-oxo-1,6-dihydropyridin-3-yl)-1H-indazol-5-yl]oxy}-3-methyl-1-phenylbutan-2-yl]-2,2,2-trifluoroacetamide] | 37 | 8.5 | 56 | 7.3
